Among the data in paper PMC6352943, “Novel pyrazolo[3,4-d]pyrimidines: design, synthesis, anticancer activity, dual EGFR/ErbB2 receptor tyrosine kinases inhibitory activity, effects on cell cycle profile and caspase-3-mediated apoptosis” (Journal of Enzyme Inhibition and Medicinal Chemistry, 2019) are inhibition values, retold here.

The subject of the first test is SK-MEL-28. The test can be described thus: NCI 60 cell line single dose screen (SRB). The test is classed as cell-based. The conditions noted are these: Homo sapiens; SK-MEL-28 (melanoma), single dose 10^−5 M, 48 h; read-out: Growth inhibition percentage. The method, boiled down:
(§1)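 Cells were plated and grown 24 h at 37 °C, 5% CO2 before compound addition from DMSO stock, then exposed 48 h. Adherent cells were fixed with cold TCA (final 10%) and suspension cells with 16% TCA. SRB-stained protein was read at 515 nm and percent growth was calculated against time-zero and untreated plates.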
For `Cc1nn(-c2ccc(F)cc2)c2ncnc(NN)c12` [Compound 9, 1–(4-Fluorophenyl)-4-hydrazinyl-3-methyl-1H-pyrazolo[3,4-d]-pyrimidine], the inhibition at 10 µM was found to be 2.1%.

The test system of another test is T-47D. In words: NCI 60 cell line single dose screen (SRB). The test is classed as cell-based. The conditions noted are these: Homo sapiens, T47D; T-47D (breast cancer), single dose 10^−5 M, 48 h; read-out: Growth inhibition percentage. The method, boiled down:
as §1
With `Cc1nn(-c2ccc(F)cc2)c2ncnc(NN)c12` [Compound 9, 1–(4-Fluorophenyl)-4-hydrazinyl-3-methyl-1H-pyrazolo[3,4-d]-pyrimidine], the inhibition at 10 µM was 32%.

For a further test, the system named is LOX IMVI. The test can be described thus: NCI 60 cell line single dose screen (SRB). The test is classed as cell-based. The conditions noted are these: Homo sapiens; LOX IMVI (melanoma), single dose 10^−5 M, 48 h; read-out: Growth inhibition percentage. The method, boiled down: as §1
`Cc1nn(-c2ccc(F)cc2)c2ncnc(NN)c12` [Compound 9, 1–(4-Fluorophenyl)-4-hydrazinyl-3-methyl-1H-pyrazolo[3,4-d]-pyrimidine]: the inhibition at 10 µM came to 13.3%.

For a further test, the system named is NCI-H322M. In words: NCI 60 cell line single dose screen (SRB). The test is classed as cell-based. The conditions noted are these: Homo sapiens; NCI-H322M (non-small cell lung cancer), single dose 10^−5 M, 48 h; read-out: Growth inhibition percentage. The method, boiled down:
as §1
For the compound `Cc1nn(-c2ccc(F)cc2)c2ncnc(NN)c12` [Compound 9, 1–(4-Fluorophenyl)-4-hydrazinyl-3-methyl-1H-pyrazolo[3,4-d]-pyrimidine], the inhibition at 10 µM amounted to 23.9%.

The subject of the next test is 786-0. The test can be described thus: NCI 60 cell line single dose screen (SRB). The test is classed as cell-based. The conditions noted are these: Homo sapiens; 786-0 (renal cancer), single dose 10^−5 M, 48 h; read-out: Growth inhibition percentage. The method, boiled down:
as §1
For the compound `Cc1nn(-c2ccc(F)cc2)c2ncnc(NN)c12` [Compound 9, 1–(4-Fluorophenyl)-4-hydrazinyl-3-methyl-1H-pyrazolo[3,4-d]-pyrimidine], the inhibition at 10 µM is -3.72%.

The next test has as its system OVCAR-4. The test can be described thus: NCI 60 cell line single dose screen (SRB). The test is classed as cell-based. The conditions noted are these: Homo sapiens; OVCAR-4 (ovarian cancer), single dose 10^−5 M, 48 h; read-out: Growth inhibition percentage. Summed up:
as §1
Take `Cc1nn(-c2ccc(F)cc2)c2ncnc(NN)c12` [Compound 9, 1–(4-Fluorophenyl)-4-hydrazinyl-3-methyl-1H-pyrazolo[3,4-d]-pyrimidine]: the inhibition at 10 µM was found to be 17.8%.

The subject of a further test is OVCAR-3. In words: NCI 60 cell line single dose screen (SRB). The test is classed as cell-based. The conditions noted are these: Homo sapiens; OVCAR-3 (ovarian cancer), single dose 10^−5 M, 48 h; read-out: Growth inhibition percentage. Summed up: as §1
In the case of `Cc1nn(-c2ccc(F)cc2)c2ncnc(NN)c12` [Compound 9, 1–(4-Fluorophenyl)-4-hydrazinyl-3-methyl-1H-pyrazolo[3,4-d]-pyrimidine], the inhibition at 10 µM was found to be 32.2%.

The subject of another test is MALME-3M. The test can be described thus: NCI 60 cell line single dose screen (SRB). The test is classed as cell-based. The conditions noted are these: Homo sapiens; MALME-3M (melanoma), single dose 10^−5 M, 48 h; read-out: Growth inhibition percentage. Summed up:
as §1
With `Cc1nn(-c2ccc(F)cc2)c2ncnc(NN)c12` [Compound 9, 1–(4-Fluorophenyl)-4-hydrazinyl-3-methyl-1H-pyrazolo[3,4-d]-pyrimidine], the inhibition at 10 µM is 19%.

In a further test the test system is MDA-MB-231/ATCC. The test can be described thus: NCI 60 cell line single dose screen (SRB). The test is classed as cell-based. The conditions noted are these: Homo sapiens; MDA-MB-231/ATCC (breast cancer), single dose 10^−5 M, 48 h; read-out: Growth inhibition percentage. The method, boiled down: as §1
Regarding `Cc1nn(-c2ccc(F)cc2)c2ncnc(NN)c12` [Compound 9, 1–(4-Fluorophenyl)-4-hydrazinyl-3-methyl-1H-pyrazolo[3,4-d]-pyrimidine], the inhibition at 10 µM stood at 23.1%.

The subject of another test is DU-145. In words: NCI 60 cell line single dose screen (SRB). The test is classed as cell-based. The conditions noted are these: Homo sapiens; DU-145 (prostate cancer), single dose 10^−5 M, 48 h; read-out: Growth inhibition percentage. The method, boiled down:
as §1
Turning to `Cc1nn(-c2ccc(F)cc2)c2ncnc(NN)c12` [Compound 9, 1–(4-Fluorophenyl)-4-hydrazinyl-3-methyl-1H-pyrazolo[3,4-d]-pyrimidine], the inhibition at 10 µM was -0.84%.

For the next test, the system named is EKVX. The test can be described thus: NCI 60 cell line single dose screen (SRB). The conditions noted are these: Homo sapiens; EKVX (non-small cell lung cancer), single dose 10^−5 M, 48 h; read-out: Growth inhibition percentage. The test is classed as cell-based. The method, boiled down:
as §1
Consider `Cc1nn(-c2ccc(F)cc2)c2ncnc(NN)c12` [Compound 9, 1–(4-Fluorophenyl)-4-hydrazinyl-3-methyl-1H-pyrazolo[3,4-d]-pyrimidine], for which the inhibition at 10 µM was found to be 17%.

The subject of a further test is MCF7. In words: NCI 60 cell line single dose screen (SRB). The test is classed as cell-based. The conditions noted are these: Homo sapiens; MCF7 (breast cancer), single dose 10^−5 M, 48 h; read-out: Growth inhibition percentage. Summed up:
as §1
As for `Cc1nn(-c2ccc(F)cc2)c2ncnc(NN)c12` [Compound 9, 1–(4-Fluorophenyl)-4-hydrazinyl-3-methyl-1H-pyrazolo[3,4-d]-pyrimidine], the inhibition at 10 µM amounted to 11.5%.

The next test concerns A498. In words: NCI 60 cell line single dose screen (SRB). The test is classed as cell-based. The conditions noted are these: Homo sapiens; A498 (renal cancer), single dose 10^−5 M, 48 h; read-out: Growth inhibition percentage. The method, boiled down: as §1
As to `Cc1nn(-c2ccc(F)cc2)c2ncnc(NN)c12` [Compound 9, 1–(4-Fluorophenyl)-4-hydrazinyl-3-methyl-1H-pyrazolo[3,4-d]-pyrimidine], the inhibition at 10 µM came out at 1.48%.

For another test, the system named is HS 578T. In words: NCI 60 cell line single dose screen (SRB). The test is classed as cell-based. The conditions noted are these: Homo sapiens; HS 578T (breast cancer), single dose 10^−5 M, 48 h; read-out: Growth inhibition percentage. The method, boiled down:
as §1
For the compound `Cc1nn(-c2ccc(F)cc2)c2ncnc(NN)c12` [Compound 9, 1–(4-Fluorophenyl)-4-hydrazinyl-3-methyl-1H-pyrazolo[3,4-d]-pyrimidine], the inhibition at 10 µM is -4.22%.

The next test concerns HCT-116. In words: NCI 60 cell line single dose screen (SRB). The test is classed as cell-based. The conditions noted are these: Homo sapiens; HCT-116 (colon cancer), single dose 10^−5 M, 48 h; read-out: Growth inhibition percentage. Summed up: as §1
As for `Cc1nn(-c2ccc(F)cc2)c2ncnc(NN)c12` [Compound 9, 1–(4-Fluorophenyl)-4-hydrazinyl-3-methyl-1H-pyrazolo[3,4-d]-pyrimidine], the inhibition at 10 µM came out at 3.99%.

The test system of another test is HOP-62. In words: NCI 60 cell line single dose screen (SRB). The test is classed as cell-based. The conditions noted are these: Homo sapiens; HOP-62 (non-small cell lung cancer), single dose 10^−5 M, 48 h; read-out: Growth inhibition percentage. The method, boiled down:
as §1
For `Cc1nn(-c2ccc(F)cc2)c2ncnc(NN)c12` [Compound 9, 1–(4-Fluorophenyl)-4-hydrazinyl-3-methyl-1H-pyrazolo[3,4-d]-pyrimidine], the inhibition at 10 µM is 4.27%.

The test system of a further test is COLO 205. The test can be described thus: NCI 60 cell line single dose screen (SRB). The test is classed as cell-based. The conditions noted are these: Homo sapiens, COLO 205, 48 h; read-out: Growth inhibition percentage. Summed up: as §1
In the case of `Cc1nn(-c2ccc(F)cc2)c2ncnc(NN)c12` [Compound 9, 1–(4-Fluorophenyl)-4-hydrazinyl-3-methyl-1H-pyrazolo[3,4-d]-pyrimidine], the inhibition at 10 µM is -11.7%.

The subject of a further test is MDA-MB-468. In words: NCI 60 cell line single dose screen (SRB). The test is classed as cell-based. The conditions noted are these: Homo sapiens; MDA-MB-468 (breast cancer), single dose 10^−5 M, 48 h; read-out: Growth inhibition percentage. The method, boiled down:
as §1
`Cc1nn(-c2ccc(F)cc2)c2ncnc(NN)c12` [Compound 9, 1–(4-Fluorophenyl)-4-hydrazinyl-3-methyl-1H-pyrazolo[3,4-d]-pyrimidine]: the inhibition at 10 µM came to 18.5%.

The test system of the next test is NCI-H226. In words: NCI 60 cell line single dose screen (SRB). The test is classed as cell-based. The conditions noted are these: Homo sapiens; NCI-H226 (non-small cell lung cancer), single dose 10^−5 M, 48 h; read-out: Growth inhibition percentage. Summed up: as §1
In the case of `Cc1nn(-c2ccc(F)cc2)c2ncnc(NN)c12` [Compound 9, 1–(4-Fluorophenyl)-4-hydrazinyl-3-methyl-1H-pyrazolo[3,4-d]-pyrimidine], the inhibition at 10 µM was 15.5%.

For the next test, the system named is OVCAR-8. The test can be described thus: NCI 60 cell line single dose screen (SRB). The test is classed as cell-based. The conditions noted are these: Homo sapiens; OVCAR-8 (ovarian cancer), single dose 10^−5 M, 48 h; read-out: Growth inhibition percentage. The method, boiled down:
as §1
Take `Cc1nn(-c2ccc(F)cc2)c2ncnc(NN)c12` [Compound 9, 1–(4-Fluorophenyl)-4-hydrazinyl-3-methyl-1H-pyrazolo[3,4-d]-pyrimidine]: the inhibition at 10 µM came out at 1.29%.

Another test concerns K-562. In words: NCI 60 cell line single dose screen (SRB). The test is classed as cell-based. The conditions noted are these: Homo sapiens, K562; K-562 (leukemia), single dose 10^−5 M, 48 h; read-out: Growth inhibition percentage. Summed up: as §1
In the case of `Cc1nn(-c2ccc(F)cc2)c2ncnc(NN)c12` [Compound 9, 1–(4-Fluorophenyl)-4-hydrazinyl-3-methyl-1H-pyrazolo[3,4-d]-pyrimidine], the inhibition at 10 µM was -3.06%.

The term inhibition denotes the drop in the measured response relative to a control, in per cent.
